Reference: PubChem BioAssay (NCI)
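Test compounds were applied to cells in 96-well plates for 48 hours at 5 doses. GI50 = concentration required for 50% inhibition of growth. TGI marks complete inhibition of growth.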

Columns and labels:
Test in all cases: growth of human tumour cells (NCI), 48 h
[1] = test system: TK-10 renal
[2] = test system: NCI-H23 lung
[3] = test system: HCC-2998 colon
[4] = test system: OVCAR-3 ovarian
[5] = test system: T-47D breast
[6] = test system: 786-0 renal
[7] = test system: SN12C renal
[8] = test system: SK-MEL-5 melanoma
[9] = test system: EKVX NSCLC
[10] = test system: RXF 393 renal
[11] = test system: IGROV1 ovarian
[12] = test system: PC-3 prostate
[13] = test system: UACC-257 melanoma
[14] = test system: CCRF-CEM leukemia
[15] = test system: UACC-62 melanoma
[16] = test system: MDA-MB-435
[17] = test system: ACHN renal
[18] = test system: MALME-3M melanoma

| SMILES | TGI [1] [µM] | TGI [2] [µM] | TGI [3] [µM] | TGI [4] [µM] | TGI [5] [µM] | TGI [6] [µM] | TGI [7] [µM] | TGI [8] [µM] | TGI [9] [µM] | TGI [10] [µM] | TGI [11] [µM] | TGI [12] [µM] | TGI [13] [µM] | TGI [14] [µM] | TGI [15] [µM] | TGI [16] [µM] | TGI [17] [µM] | TGI [18] [µM] | GI50 [7] [µM] |
| --- | --- | --- | --- | --- | --- | --- | --- | --- | --- | --- | --- | --- | --- | --- | --- | --- | --- | --- | --- |
| CCc1nc(N)nc(N)c1-c1ccc(N2CCOCC2)c(N=[N+]=[N-])c1 | > 100 | > 83.7 | > 100 | > 100 | > 100 | > 100 | > 100 | > 100 | > 100 | > 100 | > 100 | > 100 | > 100 | > 100 | > 100 | > 100 | > 100 | – | – |
| COC(=O)/C=C1\C(CO[Si](C)(C)C(C)(C)C)OC(n2ccc(=O)[nH]c2=O)C1O (stereo unspecified) | > 100 | 55.3 | 26.2 | 54.5 | > 22.3 | 16.6 | > 54.4 | 21.7 | 59.8 | 32.5 | > 75.2 | > 27.9 | > 40.4 | 26.1 | 54.1 | > 43 | > 65.5 | – | – |
| COC(=O)C1(CCCCl)CCCN1C(=O)OC(C)(C)C (stereo unspecified) | > 100 | > 100 | > 100 | > 100 | > 100 | > 100 | > 100 | > 100 | > 100 | > 100 | > 100 | > 100 | > 100 | > 100 | > 100 | > 100 | > 100 | – | – |
| O=C(Nc1ccc(Cl)cc1Cl)C1C(=O)OC2(CCCCC2)OC1=O | > 100 | 19.1 | 29.3 | 16.1 | 62.2 | 30.3 | 49.4 | 22.1 | 32.3 | 22 | 64.1 | 17.4 | 30.1 | 33.2 | 24.4 | 56 | 33.9 | – | – |
| N#CCC(=O)N/N=C\C(O)C(O)C(O)C(O)CO (stereo unspecified) | > 100 | > 100 | > 100 | > 100 | > 100 | > 100 | > 100 | > 100 | – | > 100 | > 100 | > 100 | > 100 | > 100 | > 100 | > 100 | > 100 | > 100 | – |
| CCOC(=O)c1cn(-c2ccc([N+](=O)[O-])cc2)c(=S)n2c1nc1ccccc12 | – | > 100 | > 100 | > 100 | > 100 | > 100 | > 100 | > 100 | > 100 | > 100 | > 100 | > 100 | > 100 | > 100 | > 100 | > 100 | > 100 | – | – |
| O=C(O)CCC(NC(=O)c1ccc(Nc2nc3ccc(C(F)(F)F)cc3nc2C(=O)O)cc1)C(=O)O (stereo unspecified) | > 100 | > 100 | > 100 | > 100 | > 100 | > 100 | > 100 | > 100 | > 100 | > 100 | > 100 | > 100 | > 100 | > 100 | > 100 | > 100 | > 100 | – | – |
| CCOC(=O)c1nc2ccc(C(F)(F)F)cc2nc1Oc1ccc(OC)cc1 | > 100 | – | – | > 100 | > 100 | > 100 | > 100 | > 100 | > 100 | > 100 | > 100 | > 100 | > 100 | > 100 | > 100 | > 100 | > 100 | > 100 | – |
| CC1=C(C(=O)NNC(=O)C[N+](C)(C)C)CC(C(=O)NNC(=O)C[N+](C)(C)C)=C(C)N1 | > 100 | > 100 | > 100 | > 100 | > 100 | > 100 | > 100 | > 100 | > 100 | > 100 | > 100 | > 100 | > 100 | 94 | > 100 | > 100 | > 100 | – | – |
| N#CC1=C(S)N(C2OC(CO)C(O)C(O)C2O)C(c2ccccc2)=CC1c1ccco1 (stereo unspecified) | > 100 | > 100 | > 100 | > 100 | 99.5 | > 100 | > 100 | > 100 | – | > 100 | > 100 | > 100 | > 100 | > 100 | 42.1 | > 100 | – | > 100 | – |
| O=[N+]([O-])c1ccc2c3c1[C@@H]1O[C@@H]1c1cccc(c1-3)[C@@H]1O[C@H]21 | > 51.2 | 11.6 | – | 10.9 | 12 | 7.85 | 15.7 | 27.2 | 20.4 | 16.8 | 2.72 | > 28.5 | > 25.1 | 8.17 | 31.6 | 5.22 | – | 12.7 | 3.36 |
| O=C(NC1CCCCC1)c1n[nH]nc1Cl | > 100 | > 100 | > 100 | > 100 | > 100 | > 100 | > 100 | > 100 | > 100 | > 100 | > 100 | > 100 | > 100 | > 100 | > 100 | > 100 | > 100 | – | – |
